For test [1], the target named is T1, Stromelysin-1 (Homo sapiens, UniProt P08254).
For test [2], the target named is T1, Stromelysin-1. The source holds these as a separate data set.
Test [3] addresses T2, Matrilysin (Homo sapiens, UniProt P09237).
T2 sequence (P09237 whole entry): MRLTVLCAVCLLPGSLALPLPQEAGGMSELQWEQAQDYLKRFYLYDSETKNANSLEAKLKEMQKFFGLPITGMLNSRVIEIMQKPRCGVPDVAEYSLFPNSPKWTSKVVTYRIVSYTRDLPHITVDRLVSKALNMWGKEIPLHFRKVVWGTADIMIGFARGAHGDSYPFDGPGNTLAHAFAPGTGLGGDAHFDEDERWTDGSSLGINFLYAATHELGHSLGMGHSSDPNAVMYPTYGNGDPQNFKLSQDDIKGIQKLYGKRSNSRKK

For test [4], the target named is T3, Interstitial collagenase (Homo sapiens, UniProt P03956).
T3 sequence (P03956 whole entry): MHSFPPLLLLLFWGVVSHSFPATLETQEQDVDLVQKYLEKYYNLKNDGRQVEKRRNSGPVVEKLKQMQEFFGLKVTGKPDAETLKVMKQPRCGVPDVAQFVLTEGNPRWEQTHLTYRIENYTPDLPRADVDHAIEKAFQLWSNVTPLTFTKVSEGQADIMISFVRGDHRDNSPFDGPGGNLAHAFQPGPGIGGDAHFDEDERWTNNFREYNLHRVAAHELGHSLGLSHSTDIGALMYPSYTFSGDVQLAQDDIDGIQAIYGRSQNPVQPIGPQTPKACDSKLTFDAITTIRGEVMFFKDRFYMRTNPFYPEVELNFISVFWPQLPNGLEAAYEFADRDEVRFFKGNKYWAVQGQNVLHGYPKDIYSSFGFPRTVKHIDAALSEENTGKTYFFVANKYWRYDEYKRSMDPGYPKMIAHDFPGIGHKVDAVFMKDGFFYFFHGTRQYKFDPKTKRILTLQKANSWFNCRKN

Test [5] addresses T3, Interstitial collagenase. The source holds these as a separate data set.

SMILES strings stand for the structures.

T1 sequence (P08254 whole entry): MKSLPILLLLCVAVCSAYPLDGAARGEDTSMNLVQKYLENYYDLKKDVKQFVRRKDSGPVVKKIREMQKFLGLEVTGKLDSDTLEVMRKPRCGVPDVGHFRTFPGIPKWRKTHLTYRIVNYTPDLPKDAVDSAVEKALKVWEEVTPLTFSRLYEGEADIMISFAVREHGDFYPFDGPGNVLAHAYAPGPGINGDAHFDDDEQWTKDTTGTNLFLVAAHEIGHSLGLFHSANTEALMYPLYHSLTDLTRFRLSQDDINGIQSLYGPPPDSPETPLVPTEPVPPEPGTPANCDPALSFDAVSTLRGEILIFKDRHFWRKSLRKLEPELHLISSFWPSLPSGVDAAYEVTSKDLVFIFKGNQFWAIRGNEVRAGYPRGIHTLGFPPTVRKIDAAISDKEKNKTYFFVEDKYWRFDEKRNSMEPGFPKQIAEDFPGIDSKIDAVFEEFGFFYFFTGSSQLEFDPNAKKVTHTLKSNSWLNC

`CCCCCCCCCCCCCCCC[C@H](CC(=O)NO)C(=O)N[C@@H](Cc1ccccc1)C(=O)NC` returned an IC50 in test [1] of 300 nM.

For `CNC(=O)[C@@H](NC(=O)[C@H](CCCCCCCCCCCCCCO)CC(=O)NO)C(C)(C)C`, the IC50 in test [2] is 50 nM; in test [3], 500 nM.

As to `CCCCCCCCCCCCCCC[C@H](CC(=O)O)C(=O)N[C@H](C(=O)NC)C(C)(C)C`, the midpoint of inhibition in test [1], the IC50, lay at 7000 nM.

With `CCCCCCCC[C@H](CC(=O)NO)C(=O)N[C@H](C(=O)NC)C(C)(C)C`, the IC50 in test [2] amounted to 100 nM; in test [3] it was 500 nM.

Take `CNC(=O)[C@H](Cc1ccccc1)NC(=O)[C@H](CCCc1ccccc1)CC(=O)NO`: the IC50 in test [4] came out at 1000 nM; in test [1] it was 500 nM; in test [3] it was 10000 nM.

`CCCCCCCC[C@H](CC(=O)NO)C(=O)N[C@@H](Cc1ccccc1)C(=O)NC`: the IC50 in test [4] came to 150 nM; in test [1] it was 450 nM; in test [3], 1000 nM.

`CCCCCCCCCCCCC[C@H](CC(=O)NO)C(=O)N[C@H](C(=O)NC)C(C)(C)C`: the IC50 in test [2] came out at 60 nM; in test [3], 2000 nM.

For the compound `CCCCCCCCC[C@H](CC(=O)O)C(=O)N[C@@H](Cc1ccccc1)C(=O)NC`, the values for the IC50 in test [4] and in test [1] were 7000 nM and 20000 nM, respectively.

With `CCCCCCCC[C@H](CC(=O)O)C(=O)N[C@H](C(=O)NC)C(C)(C)C`, the IC50 in test [1] was 30000 nM; in test [3], 40000 nM.

On to `CCCCCCCC[C@H](CC(=O)O)C(=O)N[C@@H](Cc1ccccc1)C(=O)NC`, for which the IC50 in test [1] amounted to 5000 nM.

In test [1], `CCCCCCCCCCCCCC[C@H](CC(=O)O)C(=O)N[C@H](C(=O)NC)C(C)(C)C` displayed an IC50 of 4000 nM.

Turning to `CCCCCC[C@H](CC(=O)NO)C(=O)N[C@@H](Cc1ccccc1)C(=O)NC`, the IC50 amounted to 20 nM in test [4], 80 nM in test [1] and 2000 nM in test [3].

For `CCCCCCCCCCCCC[C@H](CC(=O)O)C(=O)N[C@H](C(=O)NC)C(C)(C)C`, inhibition in test [1] was half-maximal at 2000 nM (IC50).

Compound `CCCCCCC[C@H](CC(=O)O)C(=O)N[C@@H](Cc1ccccc1)C(=O)NC` registered an IC50 in test [4] of 7000 nM.

The compound `CCCCCCCCCCCCCCCC[C@H](CC(=O)NO)C(=O)N[C@H](C(=O)NC)C(C)(C)C` returned a half-inhibitory concentration (IC50) in test [2] of 90 nM.

In the case of `CCCCCCCCC[C@H](CC(=O)NO)C(=O)N[C@H](C(=O)NC)C(C)(C)C`, the IC50 in test [5] turned out to be 375 nM.

In test [2], `CCCCCCCCCCCCCCCC[C@H](CC(=O)O)C(=O)N[C@H](C(=O)NC)C(C)(C)C` displayed an IC50 of 10000 nM.

Turning to `CCCCCCCCCCCC[C@H](CC(=O)NO)C(=O)N[C@@H](Cc1ccccc1)C(=O)NC`, the IC50 in test [4] is 50000 nM; in test [1], 40 nM.

On to `CCCCCCCCCCCCCC[C@H](CC(=O)NO)C(=O)N[C@@H](Cc1ccccc1)C(=O)NC`, for which the IC50 in test [1] came out at 80 nM.

Turning to `CCCCCCCCCC[C@H](CC(=O)NO)C(=O)N[C@@H](Cc1ccccc1)C(=O)NC`, the IC50 in test [4] was found to be 20 nM; in test [1] it was 1000 nM; in test [3], 2000 nM.

The compound `CCCCCCCCCCCCCCCC[C@H](CC(=O)O)C(=O)N[C@@H](Cc1ccccc1)C(=O)NC` registered an IC50 in test [1] of 50000 nM.

Regarding `CCCCCCCCCCCCCC[C@H](CC(=O)NO)C(=O)N[C@H](C(=O)NC)C(C)(C)C`, inhibition in test [2] was half-maximal at 70 nM (IC50).

In the case of `CCCCCCCCC[C@H](CC(=O)NO)C(=O)N[C@@H](Cc1ccccc1)C(=O)NC`, the figures for the IC50 in test [4], in test [1] and in test [3] were 500 nM, 30 nM and 3000 nM, respectively.

In turn, `CCCCCC[C@H](CC(=O)O)C(=O)N[C@@H](Cc1ccccc1)C(=O)NC` came in with an IC50 in test [4] of 20000 nM.

As to `CCCCCCC[C@H](CC(=O)NO)C(=O)N[C@@H](Cc1ccccc1)C(=O)NC`, the values for the IC50 in test [4], in test [1] and in test [3] were 400 nM, 40 nM and 2000 nM, respectively.

On to `CNC(=O)[C@H](Cc1ccccc1)NC(=O)[C@H](CC(C)C)[C@H](CSc1cccs1)C(=O)NO` [BATIMASTAT], for which, in test [3], the IC50 was found to be 6 nM.

In general, IC50 refers to the concentration that inhibits the measured activity by half. Low values mean greater potency, high ones weaker potency.

(Values after ChEMBL document CHEMBL1130307, “Inhibition of Matrix Metalloproteinases: An examination of the S1 pocket” (Bioorg Med Chem Lett, 1997).)
